In US20200079757A1, “COMPOUNDS FOR THE TREATMENT OF RESPIRATORY DISEASES” (THE UNIVERSITY OF MELBOURNE, priority 2017, published 2020):

What was measured:
[1] = test system: SCNN1A gene expression in BEAS-2B cells; assay: TGF-β-induced suppression of dexamethasone-induced SCNN1A gene expression in BEAS-2B cells; type: cell-based; conditions: BEAS-2B, agent 10 μM
Protocol: The primary assay for the activity of the novel CK1δ/ε inhibitors is the modulation of gene expression in the airway epithelial cell line, the BEAS-2B cells. The assay is conducted under several conditions. Generally, TGF-β or TNF-α is used to elicit fibrogenic or inflammatory genes, respectively. The agents are added at a concentration of 10 μM, or at the indicated concentrations for a period of 30 min prior to the addition of TGF-β/TNF-α which are incubated for a further 20 hours before the addition, in some experiments of the glucocorticoid, dexamethasone (Dex, 30 nM) for the final 4 hours of the experiment, prior to harvest of cellular RNA to measure by RT-qPCR the levels of mRNA of marker genes for inflammation and fibrogenesis. The inhaled corticosteroid (ICS), budesonide is also used in some experiments. Furthermore, the supernatants are harvested at the end of the incubation periods in selected experiments to measure the levels of CSF-2 or IL-8 by ELISA as described in (Tran et al. (2005) British Journal of Pharmacology, 145, 123-131). Prior to experimentation, BEAS-2B and A549 cells were incubated in serum-free DMEM containing 0.25% bovine serum albumin (BSA) and insulin-transferrin-selenium—containing supplement (Monomed A; CSL, Parkville, Melbourne, Australia). Where indicated, cells were treated with one of the series of synthesised compounds (0.3-10 μM) prior to exposure to 100 pM TGF-β1 (R&D Systems, Minneapolis, Minn.) or 300 pM bFGF (Promega, Madison, Wis.). Total RNA was extracted from cultured cells using illustra RNAspin Mini RNA Isolation Kit (GE Healthcare). RNA extracts were reverse-transcribed into cDNA using High-Capacity RNA-to-cDNA Kit (Applied Biosystems). Real-time PCR was then performed using a QuantStudio 6 Flex Real-Time PCR System using iTaq Universal SYBR green supermix and the following thermal protocol: 50° C. (2 min), 95° C. (10 min), then 40 cycles of 95° C. (15 sec), 60° C. (1 min). The threshold cycle (CT) values determined for target genes were normalized against those obtained for 18S ribosomal RNA (18S rRNA), which was included as internal control. The generation of specific PCR products was confirmed by dissociation curve analysis. In FIG. 1, the effects of SS9-010 are contrasted with those of PF670462 in an assay in BEAS-B cells measuring the induction of the glucocorticoid-regulated gene, SCNN1A encoding the protein epithelial sodium channel alpha subunit. Serum-starved BEAS-2B cells were treated with CK1δ/ε inhibitor PF670462 (1, 3, 10 μM) or SS9-010 (1, 3, 10 μM) 30 min prior to TGF-β1 (40 pM) for 24 hours, then stimulated with dexamethasone (30 nM) for 4 hours. RNA was then extracted and analyzed by RT-qPCR. Data are presented as mean±SEM for n=4 independent experiments. The potency of PF670462 and SS9-010 were similar.

[2] = test system: Col 1A gene expression in BEAS-2B cells; assay: TNFα and TGFβ induced Col 1A gene expression in BEAS-2B cells (RT-qPCR); type: cell-based; conditions: agent 10 μM
Protocol: The primary assay for the activity of the novel CK1δ/ε inhibitors is the modulation of gene expression in the airway epithelial cell line, the BEAS-2B cells. The assay is conducted under several conditions. Generally, TGF-β or TNF-α is used to elicit fibrogenic or inflammatory genes, respectively. The agents are added at a concentration of 10 μM, or at the indicated concentrations for a period of 30 min prior to the addition of TGF-β/TNF-α which are incubated for a further 20 hours before the addition, in some experiments of the glucocorticoid, dexamethasone (Dex, 30 nM) for the final 4 hours of the experiment, prior to harvest of cellular RNA to measure by RT-qPCR the levels of mRNA of marker genes for inflammation and fibrogenesis. The inhaled corticosteroid (ICS), budesonide is also used in some experiments. Furthermore, the supernatants are harvested at the end of the incubation periods in selected experiments to measure the levels of CSF-2 or IL-8 by ELISA as described in (Tran et al. (2005) British Journal of Pharmacology, 145, 123-131).
Prior to experimentation, BEAS-2B and A549 cells were incubated in serum-free DMEM containing 0.25% bovine serum albumin (BSA) and insulin-transferrin-selenium—containing supplement (Monomed A; CSL, Parkville, Melbourne, Australia). Where indicated, cells were treated with one of the series of synthesised compounds (0.3-10 μM) prior to exposure to 100 pM TGF-β1 (R&D Systems, Minneapolis, Minn.) or 300 pM bFGF (Promega, Madison, Wis.).
Total RNA was extracted from cultured cells using illustra RNAspin Mini RNA Isolation Kit (GE Healthcare). RNA extracts were reverse-transcribed into cDNA using High-Capacity RNA-to-cDNA Kit (Applied Biosystems). Real-time PCR was then performed using a QuantStudio 6 Flex Real-Time PCR System using iTaq Universal SYBR green supermix and the following thermal protocol: 50° C. (2 min), 95° C. (10 min), then 40 cycles of 95° C. (15 sec), 60° C. (1 min). The threshold cycle (CT) values determined for target genes were normalized against those obtained for 18S ribosomal RNA (18S rRNA), which was included as internal control. The generation of specific PCR products was confirmed by dissociation curve analysis.

[3] = test system: PAI-1 gene expression in BEAS-2B cells; assay: TNF-α and TGF-β induced PAI-1 gene expression in BEAS-2B cells (RT-qPCR); type: cell-based; conditions: agent 10 μM
Protocol: The primary assay for the activity of the novel CK1δ/ε inhibitors is the modulation of gene expression in the airway epithelial cell line, the BEAS-2B cells. The assay is conducted under several conditions. Generally, TGF-β or TNF-α is used to elicit fibrogenic or inflammatory genes, respectively. The agents are added at a concentration of 10 μM, or at the indicated concentrations for a period of 30 min prior to the addition of TGF-β/TNF-α which are incubated for a further 20 hours before the addition, in some experiments of the glucocorticoid, dexamethasone (Dex, 30 nM) for the final 4 hours of the experiment, prior to harvest of cellular RNA to measure by RT-qPCR the levels of mRNA of marker genes for inflammation and fibrogenesis. The inhaled corticosteroid (ICS), budesonide is also used in some experiments. Furthermore, the supernatants are harvested at the end of the incubation periods in selected experiments to measure the levels of CSF-2 or IL-8 by ELISA as described in (Tran et al. (2005) British Journal of Pharmacology, 145, 123-131). Prior to experimentation, BEAS-2B and A549 cells were incubated in serum-free DMEM containing 0.25% bovine serum albumin (BSA) and insulin-transferrin-selenium—containing supplement (Monomed A; CSL, Parkville, Melbourne, Australia). Where indicated, cells were treated with one of the series of synthesised compounds (0.3-10 μM) prior to exposure to 100 pM TGF-β1 (R&D Systems, Minneapolis, Minn.) or 300 pM bFGF (Promega, Madison, Wis.). Total RNA was extracted from cultured cells using illustra RNAspin Mini RNA Isolation Kit (GE Healthcare). RNA extracts were reverse-transcribed into cDNA using High-Capacity RNA-to-cDNA Kit (Applied Biosystems). Real-time PCR was then performed using a QuantStudio 6 Flex Real-Time PCR System using iTaq Universal SYBR green supermix and the following thermal protocol: 50° C. (2 min), 95° C. (10 min), then 40 cycles of 95° C. (15 sec), 60° C. (1 min). The threshold cycle (CT) values determined for target genes were normalized against those obtained for 18S ribosomal RNA (18S rRNA), which was included as internal control. The generation of specific PCR products was confirmed by dissociation curve analysis. In the same experiment as described in FIG. 1, the expression of the fibrogen plasminogen activator inhibitor-1 was measured (see FIG. 2). The levels of this gene are increased by both TGF-β and by Dex and they synergise when added together. The CK1 inhibitors concentration-dependently reduce the effects of each of the stimuli and further reduce baseline expression. Their potency in this effect is similar, regardless of the condition being considered. In a separate experiment BEAS-2B cells were exposed to TNF-α with(out) 30 min pretreatment with either SS9-010 or PF670462 (1-10 μM). RNA was then extracted and analyzed by RT-qPCR. Each agent inhibited TNFa stimulated PAI-1 expression with similar potency and maxima (see FIG. 3). Data are presented as mean±SD for n=1 (three technical replicates).

SMILES | SCNN1A mRNA level, Dex [1] [fold control] | SCNN1A mRNA level, TGF-β [1] [fold control] | SCNN1A mRNA level, TGF-β/Dex [1] [fold control] | SCNN1A mRNA level, vehicle (no stimulus) [1] [fold control] | Col1A mRNA level, TGF-β [2] | Col1A mRNA level, TNF-α (n = 2) [2] [fold control] | Col1A mRNA level, vehicle (no stimulus) [2] [fold control] | PAI-1 mRNA level, TGF-β [3] | PAI-1 mRNA level, TNF-α (n = 2) [3] [fold control] | PAI-1 mRNA level, vehicle (no stimulus) [3] [fold control] | melting point [°C]
Nc1nccc(-c2c(-c3ccc(F)cc3)ncn2C2CCN(CCCCc3ccccc3)CC2)n1 [SS8-070, 4-(4-(4-Fluorophenyl)-1-[1-(4-phenylbutyl)piperidin-4-yl)-1H-imidazol-5-yl)pyrimidin-2-amine] | 3.79 | 0.42 | 2.15 | 1.63 | 8.52 (n = 2) fold control | 0.88 | 1.17 | 6.57 (n = 2) fold control | 0.79 | 0.41 | –
Nc1nccc(-c2c(-c3ccc(F)cc3)ncn2C23CC4CC(CC(C4)C2)C3)n1 [SS8-122, 4-(Adamantan-1-yl-4-(4-fluorophenyl)-1H-imidazol-5-yl)pyrimidin-2-amine] | 4.26 | 0.15 | 1.67 | 0.86 | 8.07 fold control | 1.56 | 1.39 | – | 2.76 | 1.45 | –
Cc1ccc(-c2ncn(C3CCCCC3)c2-c2ccnc(N)n2)cc1 [SS8-186] | 3.06 ± 0.34 | 0.42 ± 0.06 | 1.84 ± 0.25 | 1.36 ± 0.17 | 3.14 ± 0.20 fold control | 0.56 | 0.50 ± 0.12 | 6.58 ± 1.04 fold control | 1.54 | 0.75 ± 0.07 | –
CCCCN1CCC(n2cnc(-c3ccc(F)cc3)c2-c2ccnc(N)n2)CC1 [SS9-074, 4-(1-(1-Butylpiperidin-4-yl)-4-(4-fluorophenyl)-1H-imidazol-5-yl)pyrimidin-2-amine] | 3.46 | 0.36 | 3.27 | 1.22 | 12.2 (n = 2) fold control | 2.14 | 1.61 | 12.3 (n = 2) fold control | 1.83 | 0.68 | –
CC(C)(C)n1cnc(-c2ccc(F)cc2)c1-c1ccnc(N)n1 [ZH9-190, 4-(1-(Tert-butyl)-4-(4-fluorophenyl)-1H-imidazol-5-yl)pyrimidin-2-amine] | – | – | – | – | – | – | – | – | – | – | 189 to 197
CCn1cnc(-c2ccc(F)cc2)c1-c1ccnc(N)n1 [ZH-6, 4-(1-(Ethyl)-4-(4-fluorophenyl)-1H-imidazol-5-yl)pyrimidin-2-amine] | – | – | – | – | – | – | – | – | – | – | 204 to 212
Nc1nccc(-c2c(-c3ccc(F)cc3)ncn2C2CCC2)n1 [ZH-62, 4-(1-Cyclobutyl-4-(4-fluorophenyl)-1H-imidazol-5-yl)pyrimidin-2-amine] | – | – | – | – | – | – | – | – | – | – | 229 to 231
Nc1nccc(-c2c(-c3ccc(F)cc3)ncn2CC2CCCCC2)n1 [ZH-138, 4-(1-(Cyclohexylmethyl)-4-(4-fluorophenyl)-1H-imidazol-5-yl)pyrimidin-2-amine] | – | – | – | – | – | – | – | – | – | – | 180 to 199
